Source: US20160222014A1, “COMPOUNDS FOR REGULATING FAK AND/OR SRC PATHWAYS” (ASANA BIOSCIENCES, LLC, priority 2013, published 2016)
pIC50: −log10 of the molar value.

Tests used:
AURKB (Aurora B) enzyme = target: T1, AURKB (Aurora B) enzyme (Homo sapiens, UniProt Q96GD4); assay: Aurora B HTRF assay; type: biochemical; settings: read-out: AuroraB IC50
T1 construct: purchased Invitrogen PVR 130
How it was run: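 HTRF kinase assay with 5 nM Aurora B and 50 nM ULight-PLK (Ser137) peptide, with a reagent at 30 μM final; 1 h at rt. Reaction stopped with EDTA, and phospho-peptide detected with 2 nM Eu-anti-P-PLK(Ser137) antibody after 1 h at rt, read as HTRF.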

JAK2 = JAK2 (Homo sapiens, UniProt O60674); assay: JAK2 biochemical potency; settings: read-out: JAK2 HTRF IC50
Chain of JAK2 (O60674 whole entry, species assumed): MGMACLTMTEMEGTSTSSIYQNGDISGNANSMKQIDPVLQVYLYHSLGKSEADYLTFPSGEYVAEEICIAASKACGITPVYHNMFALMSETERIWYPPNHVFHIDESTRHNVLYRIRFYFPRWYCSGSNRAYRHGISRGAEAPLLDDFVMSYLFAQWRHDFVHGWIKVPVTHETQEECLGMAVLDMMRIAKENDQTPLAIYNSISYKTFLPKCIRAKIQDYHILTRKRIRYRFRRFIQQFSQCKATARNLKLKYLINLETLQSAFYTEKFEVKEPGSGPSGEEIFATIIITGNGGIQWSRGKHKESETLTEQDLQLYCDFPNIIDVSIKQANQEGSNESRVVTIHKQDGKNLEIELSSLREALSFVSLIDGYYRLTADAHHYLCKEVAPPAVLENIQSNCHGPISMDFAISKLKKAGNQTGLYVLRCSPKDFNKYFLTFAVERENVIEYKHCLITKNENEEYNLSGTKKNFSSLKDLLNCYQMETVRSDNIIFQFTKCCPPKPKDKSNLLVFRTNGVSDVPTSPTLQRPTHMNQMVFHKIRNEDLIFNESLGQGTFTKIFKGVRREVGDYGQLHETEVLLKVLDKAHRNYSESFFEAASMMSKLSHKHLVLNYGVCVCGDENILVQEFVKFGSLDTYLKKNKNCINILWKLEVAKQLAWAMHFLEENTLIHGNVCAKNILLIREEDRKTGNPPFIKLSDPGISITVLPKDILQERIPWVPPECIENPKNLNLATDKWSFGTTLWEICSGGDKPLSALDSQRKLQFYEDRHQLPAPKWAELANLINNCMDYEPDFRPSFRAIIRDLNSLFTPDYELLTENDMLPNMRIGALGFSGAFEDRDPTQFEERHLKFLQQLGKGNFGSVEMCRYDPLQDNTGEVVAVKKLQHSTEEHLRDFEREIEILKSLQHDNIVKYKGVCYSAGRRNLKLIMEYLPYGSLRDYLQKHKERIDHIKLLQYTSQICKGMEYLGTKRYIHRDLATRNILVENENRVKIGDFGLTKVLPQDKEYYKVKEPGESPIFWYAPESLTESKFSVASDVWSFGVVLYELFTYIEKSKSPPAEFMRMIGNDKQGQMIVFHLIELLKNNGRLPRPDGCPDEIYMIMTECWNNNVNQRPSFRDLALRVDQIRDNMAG

recombinant human FAK1 = target: T2, recombinant human FAK1 (Homo sapiens, UniProt Q05397); assay: FAK1 HTRF assay; type: biochemical
T2 construct: fused on or other part: N-terminal 6xHis tag
T2 sequence (Q05397 422-680 limits assumed): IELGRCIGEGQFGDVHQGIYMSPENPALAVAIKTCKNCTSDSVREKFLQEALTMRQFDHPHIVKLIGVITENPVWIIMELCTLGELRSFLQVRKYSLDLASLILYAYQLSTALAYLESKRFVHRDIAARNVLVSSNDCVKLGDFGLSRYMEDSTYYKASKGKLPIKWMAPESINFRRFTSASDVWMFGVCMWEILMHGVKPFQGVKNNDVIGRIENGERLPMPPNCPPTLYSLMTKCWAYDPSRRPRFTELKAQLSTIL
How it was run: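 His-tagged human FAK1 (residues 692–end, Sf9-expressed), 10 nM final, with 0.5 μM biotinylated gastrin-precursor Tyr87 peptide and a 10 μM final reagent in pH 7.4 buffer, 45 min at rt. Detection used Eu anti-pTyr antibody plus SA-APC (665/620 nm). Compounds top concentration 10 μM; IC50 from % inhibition.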

[1] = target: T3, FAK phosphorylated at Y397 in HEK-FAK cell line overexpressing human FL FAK protein (Homo sapiens, UniProt Q05397); assay: Cell based assay, Phospho-FAK ELISA; settings: HEK stb; read-out: pFAK EC50 (μM) HEK stb
T3 construct: expressed in transfected cells
T3 sequence (Q05397 whole entry): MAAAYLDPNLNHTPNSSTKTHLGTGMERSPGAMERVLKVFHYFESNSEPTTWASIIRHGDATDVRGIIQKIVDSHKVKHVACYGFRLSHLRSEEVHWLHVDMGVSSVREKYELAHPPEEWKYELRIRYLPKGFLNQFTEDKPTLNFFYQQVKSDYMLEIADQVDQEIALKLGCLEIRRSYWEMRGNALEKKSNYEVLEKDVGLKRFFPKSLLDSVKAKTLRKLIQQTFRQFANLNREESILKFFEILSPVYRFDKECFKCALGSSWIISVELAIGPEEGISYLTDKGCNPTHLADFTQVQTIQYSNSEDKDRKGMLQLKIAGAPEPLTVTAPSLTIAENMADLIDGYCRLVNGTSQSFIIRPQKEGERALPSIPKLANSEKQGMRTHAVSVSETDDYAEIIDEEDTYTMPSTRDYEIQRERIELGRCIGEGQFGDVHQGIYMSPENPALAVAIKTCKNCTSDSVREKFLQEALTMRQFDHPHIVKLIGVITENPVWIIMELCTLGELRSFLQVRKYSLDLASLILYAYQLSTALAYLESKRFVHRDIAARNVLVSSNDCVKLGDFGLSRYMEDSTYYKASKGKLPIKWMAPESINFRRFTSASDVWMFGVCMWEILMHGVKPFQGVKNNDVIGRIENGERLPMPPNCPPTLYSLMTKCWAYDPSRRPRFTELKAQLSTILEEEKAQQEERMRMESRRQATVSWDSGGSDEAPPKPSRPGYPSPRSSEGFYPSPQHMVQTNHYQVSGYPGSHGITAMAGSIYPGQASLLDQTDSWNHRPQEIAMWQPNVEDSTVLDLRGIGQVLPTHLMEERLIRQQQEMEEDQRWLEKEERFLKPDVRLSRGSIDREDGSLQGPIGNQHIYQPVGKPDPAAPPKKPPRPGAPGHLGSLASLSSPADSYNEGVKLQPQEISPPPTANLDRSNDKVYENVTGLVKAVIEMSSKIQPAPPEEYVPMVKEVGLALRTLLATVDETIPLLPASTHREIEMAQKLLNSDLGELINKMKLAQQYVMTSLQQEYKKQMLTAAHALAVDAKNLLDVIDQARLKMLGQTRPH
Text: D. Cell Based Assay-Phospho-FAK ELISA
The DuoSet IC ELISA (R&D systems—Cat no. DYC4528-5) provided the basic components required for the development of sandwich ELISAs to measure Focal Adhesion Kinase 1 (FAK) phosphorylated at Y397 in cell lysates. An immobilized capture antibody specific for FAK, also known as PTK2, binds both phosphorylated and unphosphorylated protein. After washing away unbound material, a biotinylated detection antibody specific for FAK phosphorylated at Y397 was used to detect only phosphorylated protein, utilizing a standard Streptavidin-HRP format. The cell line used for the assay was a stable HEK-FAK cell line overexpressing human FL FAK protein, which was generated as follows.
HEK293 cells (ATCC® CRL-1573™, 10801 University Boulevard, Manassas, Va. 20110 USA) were seeded in four 100 mm petri dishes at a seeding density of 1.5×10^6 cells per plate and incubated overnight at 37° C. in a 5% CO2 incubator. The transfection mix was prepared as follows. (A) 10 μg DNA (pCDNA4 V5/HisA vector containing Zeocin as mammalian selection marker, procured from Invitrogen) with the full length human FAK gene represented by the nucleotide sequence provided in NCBI Reference Sequence: NM_153831.3, SEQ ID NO: 1:
was added to 1.5 mL Opti-MEM® (reduced serum media is a modification of Eagle's Minimum Essential Media, buffered with HEPES and sodium bicarbonate and supplemented with hypoxanthine, thymidine, sodium pyruvate, L-glutamine, trace elements and growth factors commercially available from Invitrogen) and incubated at room temperature for 5 minutes. (B) 30 μL Lipofectamine™ Transfection reagent (Life Technologies) was added to 1.5 mL Opti-MEM® and incubated at room temperature for 5 minutes. Following this, (a) and (b) were mixed and incubated at room temperature for 20 minutes. Media was removed from cells and washed with 1× phosphate buffered saline (PBS) and the transfection mix prepared above was mixed with 3 mL of Opti-MEM®, added to the cells and incubated at 37° C. Four hours later, 6 mL of 20% Dulbecco's Modified Eagle Medium (DMEM) was added to the plates and incubated at 37° C. in a 5% CO2 incubator. Approximately 72 hours after transfection, cells were subcultured at various dilutions with fresh medium containing 0.8 mg/mL Zeocin™ (Life Technologies). Cells were replenished with selective medium every 3-4 days until cell foci were identified in the FAK transfected cells and most of the cells died in the control plates. Cells from these foci were grown in the presence of selective media and the expression of FAK was confirmed by Western Blotting. Over expression of FAK in the stably-transfected cells was quantified in the cell-based ELISA assay described below by determining the signal window, with a signal window of 2 or above considered to be robust). The HEK-FAK stable cell line thus was maintained in 0.8 mg/mL Zeocin™ (Life Technologies) and used in cell-based ELISA to assess autophosphorylation of FAK.
(i) Materials • 1. Phospho-FAK (Y397)-Capture Antibody • 2. Phospho-FAK (Y397)-Detection Antibody • 3. Streptavidin-HRP • 4. Cells used for the assay-HEK over expressing human FL FAK protein
(ii) Solutions • PBS—137 mM NaCl, 2.7 mM KCl, 8.1 mM Na2HPO4, 1.5 mM KH2PO4, pH 7.2-7.4, 0.2 μm filtered. • Wash Buffer—0.05% Tween20™ in PBS, pH 7.2-7.4 • Block Buffer—1% BSA, 0.05% NaN3, in PBS, pH 7.2-7.4. • IC Diluent #1-1% BSA in PBS, pH 7.2-7.4, 0.2 μm filtered. • IC Diluent #8-1 mM EDTA, 0.5% Triton™ X-100, 5 mM NaF in PBS, pH 7.2-7.4. IC Diluent #8 was also the base buffer for IC Diluent #3, IC Diluent #7, and Lysis. • Buffer #6. […]

Recombinant Src enzyme = target: T4, Recombinant Src enzyme (Homo sapiens, UniProt P12931); assay: Src HTRF assay; type: biochemical
T4 construct: purchased Millipore 14-326; host or cells: Sf21 insect cells
T4 sequence (P12931 whole entry): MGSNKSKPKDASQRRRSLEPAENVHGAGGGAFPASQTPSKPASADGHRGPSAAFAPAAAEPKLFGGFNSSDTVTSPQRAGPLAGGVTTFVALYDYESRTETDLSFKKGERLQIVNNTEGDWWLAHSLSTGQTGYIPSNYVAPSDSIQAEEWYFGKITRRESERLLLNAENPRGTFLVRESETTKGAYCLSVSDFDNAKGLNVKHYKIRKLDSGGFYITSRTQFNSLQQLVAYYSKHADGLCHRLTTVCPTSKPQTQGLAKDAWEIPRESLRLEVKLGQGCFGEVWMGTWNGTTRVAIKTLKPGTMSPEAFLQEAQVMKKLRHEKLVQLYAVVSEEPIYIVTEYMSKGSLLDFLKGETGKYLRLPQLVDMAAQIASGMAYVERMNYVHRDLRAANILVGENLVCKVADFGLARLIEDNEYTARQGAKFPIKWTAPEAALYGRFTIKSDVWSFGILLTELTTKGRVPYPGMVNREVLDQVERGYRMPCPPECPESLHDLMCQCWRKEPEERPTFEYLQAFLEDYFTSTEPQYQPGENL
How it was run: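 Sf21-expressed recombinant Src at 5 nM final with biotinylated N-terminally tagged Tyk2 peptide substrate at 0.5 μM final; a component freshly made in enzyme assay buffer pH7.4 was used at 10 μM final. Buffer, supplements, compound handling and procedure as in the FAK HTRF assay; dasatinib included.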

T1 sequence (Q96GD4 whole entry): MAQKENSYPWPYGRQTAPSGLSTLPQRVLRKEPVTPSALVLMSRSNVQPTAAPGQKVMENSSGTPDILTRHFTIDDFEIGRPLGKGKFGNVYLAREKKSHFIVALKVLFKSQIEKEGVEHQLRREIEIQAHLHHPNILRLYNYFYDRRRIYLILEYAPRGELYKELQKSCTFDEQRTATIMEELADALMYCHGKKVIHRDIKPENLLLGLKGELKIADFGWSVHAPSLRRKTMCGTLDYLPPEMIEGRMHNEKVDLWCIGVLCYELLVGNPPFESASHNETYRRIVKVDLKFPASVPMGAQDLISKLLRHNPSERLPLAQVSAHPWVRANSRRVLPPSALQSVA

| Structure (SMILES) | pIC50 (AURKB (Aurora B) enzyme) | pIC50 (JAK2) | pIC50 (recombinant human FAK1) | EC50 [1] | pIC50 (Recombinant Src enzyme) |
| --- | --- | --- | --- | --- | --- |
| CN(c1ncccc1Cn1ccc2cnc(Nc3ccc(N4CCNCC4)cc3)nc21)S(C)(=O)=O [Example 116] | > 7.70 | > 7.70 | – | – | – |
| O=S(=O)(c1cccc2cccnc12)n1ccc2cnc(Nc3ccc(N4CCNCC4)cc3)nc21 [Example 193] | > 7.70 | > 7.70 | > 7.70 | – | – |
| CN(C)CCOc1cccc(Nc2ncc3ccn(Cc4cccnc4N(C)S(C)(=O)=O)c3n2)c1 [Example 91] | > 7.70 | > 7.70 | – | – | – |
| O=S(=O)(c1cccc2cnccc12)n1ccc2cnc(Nc3ccc(N4CCNCC4)cc3)nc21 [Example 235] | > 7.70 | > 7.70 | – | – | – |
| CN(c1ncccc1Cn1ccc2cnc(Nc3ccc4ncsc4c3)nc21)S(C)(=O)=O [Example 123] | > 7.70 | > 7.70 | – | – | – |
| COc1ccccc1S(=O)(=O)n1ccc2cnc(Nc3ccc(N4CCNCC4)cc3)nc21 [Example 333] | > 7.70 | > 7.70 | > 7.70 | – | – |
| CN(c1ncccc1Cn1ccc2cnc(Nc3cccc(S(N)(=O)=O)c3)nc21)S(C)(=O)=O [Example 165] | > 7.70 | > 7.70 | – | – | – |
| O=c1[nH]c2ccc(Nc3ncc4ccn(S(=O)(=O)c5ccccc5OC(F)F)c4n3)cc2[nH]1 [Example 180] | > 7.70 | > 7.70 | > 7.70 | – | – |
| CC(=O)Nc1cccc(Nc2ncc3ccn(Cc4ccccc4N(C)S(C)(=O)=O)c3n2)c1 [Example 100] | – | > 7.70 | > 7.70 | – | – |
| CC(=O)Nc1ccc(Nc2ncc3ccn(Cc4cccnc4N(C)S(C)(=O)=O)c3n2)cc1 [Example 35] | > 7.70 | > 7.70 | – | – | – |
| O=S(=O)(c1cccc2cccnc12)n1ccc2cnc(Nc3ccc(N4CC5CC4CN5)cc3)nc21 (stereo not drawn) [Example 246] | > 7.70 | > 7.70 | > 7.70 | – | – |
| O=S(=O)(c1cccc2cccnc12)n1ncc2cnc(Nc3ccc(N4CCNCC4)cc3)cc21 [Example 210] | > 7.70 | < 6.00 | – | – | – |
| C[C@@H]1CN(c2ccc(Nc3ncc4ccn(Cc5cccnc5N(C)S(C)(=O)=O)c4n3)cc2)CCN1 [Example 475] | > 7.70 | > 7.70 | – | – | – |
| CN(C)C1CCN(c2ccc(Nc3ncc4c(n3)N(S(=O)(=O)c3cccc5cccnc35)CC4(C)C)cc2)CC1 [Example 500] | – | < 6.00 | > 7.70 | – | – |
| N#Cc1ccccc1S(=O)(=O)n1ccc2cnc(Nc3ccc(N4CCNCC4)c(F)c3)nc21 [Example 245] | > 7.70 | – | – | > 1 µM | > 7.70 |
| O=S(=O)(c1cccc2cccnc12)n1ccc2cnc(Nc3ccc(CN4CCNCC4)cc3)nc21 [Example 244] | > 7.70 | > 7.70 | > 7.70 | – | – |
| CN(c1ncccc1Cn1ccc2cnc(Nc3cccc(N4CCOCC4)c3)nc21)S(C)(=O)=O [Example 99] | – | > 7.70 | – | – | – |
| O=S(=O)(c1cccc2cccnc12)n1ccc2cnc(Nc3ccc(CN4CCC(F)(F)CC4)cc3)nc21 [Example 248] | > 7.70 | > 7.70 | > 7.70 | – | – |

| Structure (SMILES) | pIC50 (AURKB (Aurora B) enzyme) | pIC50 (JAK2) | pIC50 (recombinant human FAK1) | EC50 [1] | pIC50 (Recombinant Src enzyme) |
| --- | --- | --- | --- | --- | --- |
| Cc1cc(S(=O)(=O)n2ccc3cnc(Nc4ccc(N5CCNCC5)cc4)nc32)c2ncccc2c1 [Example 357] | > 7.70 | > 7.70 | > 7.70 | – | – |
| CN1CCN(c2ccc(Nc3ncc4ccn(Cc5cccnc5N(C)S(C)(=O)=O)c4n3)cc2)CC1 [Example 101] | – | > 7.70 | – | – | – |
| O=S(=O)(c1ccccc1OC(F)F)n1ccc2cnc(Nc3ccc(N4CCNCC4)cc3)nc21 [Example 184] | > 7.70 | > 7.70 | > 7.70 | – | – |
| CC(=O)Nc1ccc(Nc2ncc3ccn(Cc4ccccc4OC(F)F)c3n2)cc1 [Example 95] | – | > 7.70 | – | – | – |
| N#Cc1ccccc1S(=O)(=O)n1ccc2cnc(Nc3ccc(N4CCNCC4)cc3)cc21 [Example 314] | > 7.70 | > 7.70 | > 7.70 | – | – |
| C[C@@H]1CN(c2ccc(Nc3ncc4ccn(Cc5ccccc5N(C)S(C)(=O)=O)c4n3)cc2)CCN1 [Example 448, (R)—N-methyl-N-(2-((2-((4-(3-methylpiperazin-1-yl)phenyl)amino)-7H-pyrrolo[2,3-d]pyrimidin-7-yl)methyl)phenyl)methanesulfonamide] | > 7.70 | > 7.70 | > 7.70 | – | – |
| CN(c1ncccc1Cn1ccc2cnc(Nc3ccc4c(c3)CC(=O)N4)nc21)S(C)(=O)=O [Example 304] | > 7.70 | > 7.70 | > 7.70 | – | – |
| C[C@H]1CN(c2ccc(Nc3ncc4ccn(Cc5ccccc5N(C)S(C)(=O)=O)c4n3)cc2)CCN1 [Example 467] | > 7.70 | > 7.70 | > 7.70 | – | – |
| COc1cc(Nc2cc3c(ccn3S(=O)(=O)c3cccc4cccnc34)cn2)ccc1N1CCNCC1 [Example 328] | > 7.70 | < 6.00 | > 7.70 | – | – |
| CN(C)c1ccc(Nc2ncc3ccn(Cc4cccnc4N(C)S(C)(=O)=O)c3n2)cc1 [Example 105] | > 7.70 | > 7.70 | – | – | – |
| N#Cc1ccccc1S(=O)(=O)n1cc(F)c2cnc(Nc3ccc(N4CCNCC4)cc3)nc21 [Example 319] | > 7.70 | > 7.70 | > 7.70 | – | – |
| C[C@H]1CNCCN1c1ccc(Nc2ncc3ccn(Cc4ccccc4N(C)S(C)(=O)=O)c3n2)cc1 [Example 481] | > 7.70 | > 7.70 | – | – | – |
| C[C@H]1CN(c2ccc(Nc3ncc4ccn(Cc5cccnc5N(C)S(C)(=O)=O)c4n3)cc2)CCN1 [Example 471, N-Methyl-N-(3-{2-[4-((S)-3-methyl-piperazin-1-yl)-phenylamino]-pyrrolo[2,3-d]pyrimidin-7-ylmethyl}-pyridin-2-yl)-methanesulfonamide] | – | > 7.70 | – | – | – |
| COc1cc(Nc2cc3c(ccn3S(=O)(=O)c3ccccc3C#N)cn2)ccc1N1CCNCC1 [Example 391] | > 7.70 | < 6.00 | > 7.70 | – | – |
| C[C@@H]1CN(c2ccc(Nc3ncc4ccn(Cc5ccccc5NS(C)(=O)=O)c4n3)cc2)CCN1 [Example 547] | > 7.70 | – | – | > 1 µM | > 7.70 |
| CN(c1ccccc1Cn1ccc2cnc(Nc3ccc4c(c3)CCC(=O)N4)nc21)S(C)(=O)=O [Example 103] | – | > 7.70 | > 7.70 | – | – |
| Cc1ccnc2c(S(=O)(=O)n3ccc4cnc(Nc5ccc(N6CCNCC6)cc5)nc43)cccc12 [Example 398] | > 7.70 | – | – | > 1 µM | < 6.00 |
